Source: the kinase profiling compilation of Christmann-Franck et al. (2016)

How the values were obtained:
Experiment in all cases: KINOMEscan competition binding
Details in all cases: compound 10.0 µM
[1] = tested on: ABL1 (human), P00519 [M351T]
ABL2 (human) = ABL2 (human) (UniProt P42684)
BMPR1A (human) = BMPR1A (human) (UniProt P36894)
BMPR2 (human) = BMPR2 (human) (UniProt Q13873)
CAMK4 (human) = CAMK4 (human) (UniProt Q16566)
CAMKK1 (human) = CAMKK1 (human) (UniProt Q8N5S9)
CDC42BPB (human) = CDC42BPB (human) (UniProt Q9Y5S2)
CDK11B (human) = CDK11B (human) (UniProt P21127)
CDK17 (human) = CDK17 (human) (UniProt Q00537)
CDK18 (human) = CDK18 (human) (UniProt Q07002)
CDK8 (human) = CDK8 (human) (UniProt P49336)
CDKL2 (human) = CDKL2 (human) (UniProt Q92772)
CSNK1D (human) = CSNK1D (human) (UniProt P48730)
EIF2AK2 (human) = EIF2AK2 (human) (UniProt P19525)
EPHB2 (human) = EPHB2 (human) (UniProt P29323)
FYN (human) = FYN (human) (UniProt P06241)
[2] = tested on: KIT (human), P10721 [D816V]
MAP2K6 (human) = MAP2K6 (human) (UniProt P52564)
MAP3K3 (human) = MAP3K3 (human) (UniProt Q99759)
MAPKAPK5 (human) = MAPKAPK5 (human) (UniProt Q8IW41)
MARK1 (human) = MARK1 (human) (UniProt Q9P0L2)
MLTK (human) = MLTK (human) (UniProt Q9NYL2)
MYLK (human) = MYLK (human) (UniProt Q15746)
MYO3B (human) = MYO3B (human) (UniProt Q8WXR4)
NEK9 (human) = NEK9 (human) (UniProt Q8TD19)
PAK4 (human) = PAK4 (human) (UniProt O96013)
PDGFRB (human) = PDGFRB (human) (UniProt P09619)
PIK3CD (human) = PIK3CD (human) (UniProt O00329)
PIM1 (human) = PIM1 (human) (UniProt P11309)
PRKACA (human) = PRKACA (human) (UniProt P17612)
PRKD2 (human) = PRKD2 (human) (UniProt Q9BZL6)
RET (human) = RET (human) (UniProt P07949)
RPS6KA1 KD1 (human) = RPS6KA1 KD1 (human) (UniProt Q15418)
SRC (human) = SRC (human) (UniProt P12931)
STK11 (human) = STK11 (human) (UniProt Q15831)
STK33 (human) = STK33 (human) (UniProt Q9BYT3)
TEC (human) = TEC (human) (UniProt P42680)
[3] = target: TYK2 JH2 pseudokinase (human) (UniProt P29597)
IRAK3 (human) = IRAK3 (human) (UniProt Q9Y616)
MAP2K3 (human) = MAP2K3 (human) (UniProt P46734)

Sequence of CDC42BPB (human) (Q9Y5S2 whole entry, looked up): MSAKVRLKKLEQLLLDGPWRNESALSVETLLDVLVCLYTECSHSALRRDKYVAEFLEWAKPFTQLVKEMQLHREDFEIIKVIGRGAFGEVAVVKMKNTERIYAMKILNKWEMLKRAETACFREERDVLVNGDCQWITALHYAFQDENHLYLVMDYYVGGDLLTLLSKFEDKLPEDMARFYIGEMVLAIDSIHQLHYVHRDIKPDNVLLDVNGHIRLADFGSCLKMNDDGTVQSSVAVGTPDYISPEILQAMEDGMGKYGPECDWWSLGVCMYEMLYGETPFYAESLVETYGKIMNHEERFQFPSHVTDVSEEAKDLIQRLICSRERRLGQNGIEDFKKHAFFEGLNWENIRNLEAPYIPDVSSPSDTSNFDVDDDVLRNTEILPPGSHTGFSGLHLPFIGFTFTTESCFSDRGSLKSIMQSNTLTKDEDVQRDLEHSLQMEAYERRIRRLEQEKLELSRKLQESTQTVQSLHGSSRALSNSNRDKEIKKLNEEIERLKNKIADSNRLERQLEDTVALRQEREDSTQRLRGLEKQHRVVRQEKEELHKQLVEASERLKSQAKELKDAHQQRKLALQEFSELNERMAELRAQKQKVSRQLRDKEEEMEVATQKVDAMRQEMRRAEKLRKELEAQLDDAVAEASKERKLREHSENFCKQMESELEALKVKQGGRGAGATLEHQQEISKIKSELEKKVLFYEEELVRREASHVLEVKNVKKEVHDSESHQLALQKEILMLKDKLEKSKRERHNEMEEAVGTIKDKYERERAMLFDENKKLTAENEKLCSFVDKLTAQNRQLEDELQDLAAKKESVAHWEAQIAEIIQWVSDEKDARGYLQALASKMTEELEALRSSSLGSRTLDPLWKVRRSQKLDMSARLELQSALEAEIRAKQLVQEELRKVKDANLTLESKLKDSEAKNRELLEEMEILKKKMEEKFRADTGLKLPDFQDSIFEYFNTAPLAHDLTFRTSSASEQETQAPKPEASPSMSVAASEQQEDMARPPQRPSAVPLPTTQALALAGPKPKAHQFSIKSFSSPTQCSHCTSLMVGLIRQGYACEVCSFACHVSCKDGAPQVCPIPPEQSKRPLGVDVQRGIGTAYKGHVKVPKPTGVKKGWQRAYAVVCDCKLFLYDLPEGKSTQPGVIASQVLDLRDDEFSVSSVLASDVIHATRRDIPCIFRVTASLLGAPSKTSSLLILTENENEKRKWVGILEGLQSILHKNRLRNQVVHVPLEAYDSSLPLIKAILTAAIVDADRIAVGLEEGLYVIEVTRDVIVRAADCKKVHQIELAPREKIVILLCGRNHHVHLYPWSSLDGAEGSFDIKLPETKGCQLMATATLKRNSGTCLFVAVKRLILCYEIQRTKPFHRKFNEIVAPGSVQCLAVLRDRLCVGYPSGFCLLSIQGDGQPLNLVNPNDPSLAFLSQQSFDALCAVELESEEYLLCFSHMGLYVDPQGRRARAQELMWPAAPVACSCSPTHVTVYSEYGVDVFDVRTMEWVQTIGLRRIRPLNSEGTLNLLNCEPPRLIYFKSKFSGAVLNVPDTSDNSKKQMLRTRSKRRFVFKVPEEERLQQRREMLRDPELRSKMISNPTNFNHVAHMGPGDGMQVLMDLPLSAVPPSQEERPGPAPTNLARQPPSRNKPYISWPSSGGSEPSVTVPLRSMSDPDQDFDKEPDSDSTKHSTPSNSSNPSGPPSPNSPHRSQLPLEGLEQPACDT
Sequence of CDK18 (human) (Q07002 whole entry, looked up): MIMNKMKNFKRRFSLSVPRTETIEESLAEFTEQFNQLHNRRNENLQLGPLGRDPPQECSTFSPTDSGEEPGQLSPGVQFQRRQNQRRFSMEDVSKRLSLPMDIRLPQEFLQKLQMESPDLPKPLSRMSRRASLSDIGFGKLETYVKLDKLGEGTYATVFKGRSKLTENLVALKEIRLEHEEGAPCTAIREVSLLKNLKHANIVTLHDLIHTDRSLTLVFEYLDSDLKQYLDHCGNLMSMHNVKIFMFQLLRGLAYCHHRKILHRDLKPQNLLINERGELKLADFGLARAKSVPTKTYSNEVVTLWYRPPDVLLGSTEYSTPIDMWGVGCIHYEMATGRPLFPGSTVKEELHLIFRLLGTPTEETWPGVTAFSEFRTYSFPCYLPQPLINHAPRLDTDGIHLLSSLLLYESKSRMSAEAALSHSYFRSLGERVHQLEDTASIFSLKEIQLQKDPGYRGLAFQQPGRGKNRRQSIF
Sequence of RET (human) (P07949 whole entry, looked up): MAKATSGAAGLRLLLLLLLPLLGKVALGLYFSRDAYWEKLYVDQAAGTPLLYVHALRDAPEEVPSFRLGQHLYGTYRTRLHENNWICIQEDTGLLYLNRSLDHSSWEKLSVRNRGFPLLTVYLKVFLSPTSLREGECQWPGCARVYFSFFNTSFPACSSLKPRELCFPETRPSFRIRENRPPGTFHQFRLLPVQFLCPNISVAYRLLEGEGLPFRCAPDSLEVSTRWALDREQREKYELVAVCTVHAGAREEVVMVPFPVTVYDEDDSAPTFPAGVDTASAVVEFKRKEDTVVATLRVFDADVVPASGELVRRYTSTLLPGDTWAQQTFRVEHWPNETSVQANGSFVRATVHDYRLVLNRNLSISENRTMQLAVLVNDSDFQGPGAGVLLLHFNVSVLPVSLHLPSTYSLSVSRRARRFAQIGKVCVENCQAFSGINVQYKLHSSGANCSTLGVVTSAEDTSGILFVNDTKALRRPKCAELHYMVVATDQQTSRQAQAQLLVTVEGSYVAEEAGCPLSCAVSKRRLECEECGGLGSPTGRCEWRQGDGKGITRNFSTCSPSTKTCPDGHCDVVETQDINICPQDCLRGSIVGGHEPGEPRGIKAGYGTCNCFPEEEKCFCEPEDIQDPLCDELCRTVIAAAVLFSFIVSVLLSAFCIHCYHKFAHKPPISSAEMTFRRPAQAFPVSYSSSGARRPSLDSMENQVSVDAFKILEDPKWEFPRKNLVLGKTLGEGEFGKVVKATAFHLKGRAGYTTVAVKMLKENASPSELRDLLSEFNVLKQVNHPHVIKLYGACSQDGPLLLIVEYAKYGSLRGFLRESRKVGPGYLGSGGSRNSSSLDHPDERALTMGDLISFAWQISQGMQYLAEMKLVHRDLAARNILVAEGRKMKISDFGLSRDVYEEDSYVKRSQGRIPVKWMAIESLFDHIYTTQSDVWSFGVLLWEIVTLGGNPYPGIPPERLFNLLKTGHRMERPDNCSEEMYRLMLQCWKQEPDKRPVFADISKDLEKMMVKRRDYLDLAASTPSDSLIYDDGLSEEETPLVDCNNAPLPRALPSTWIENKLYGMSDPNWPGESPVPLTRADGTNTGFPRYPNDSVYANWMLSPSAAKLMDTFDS
Sequence of CAMK4 (human) (Q16566 whole entry, looked up): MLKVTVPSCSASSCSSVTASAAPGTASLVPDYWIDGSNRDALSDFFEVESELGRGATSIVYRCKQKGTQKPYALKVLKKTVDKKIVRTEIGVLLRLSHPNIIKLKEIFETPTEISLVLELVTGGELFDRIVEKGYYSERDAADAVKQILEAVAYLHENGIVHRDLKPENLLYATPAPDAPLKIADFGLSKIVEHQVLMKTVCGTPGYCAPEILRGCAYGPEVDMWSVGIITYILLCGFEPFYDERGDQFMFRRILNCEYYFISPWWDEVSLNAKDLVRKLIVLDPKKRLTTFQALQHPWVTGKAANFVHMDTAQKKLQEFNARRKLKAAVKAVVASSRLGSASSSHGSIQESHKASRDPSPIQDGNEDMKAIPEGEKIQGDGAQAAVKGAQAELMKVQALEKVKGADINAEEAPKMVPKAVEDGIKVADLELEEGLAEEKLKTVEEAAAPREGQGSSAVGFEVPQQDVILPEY
Sequence of FYN (human) (P06241 whole entry, looked up): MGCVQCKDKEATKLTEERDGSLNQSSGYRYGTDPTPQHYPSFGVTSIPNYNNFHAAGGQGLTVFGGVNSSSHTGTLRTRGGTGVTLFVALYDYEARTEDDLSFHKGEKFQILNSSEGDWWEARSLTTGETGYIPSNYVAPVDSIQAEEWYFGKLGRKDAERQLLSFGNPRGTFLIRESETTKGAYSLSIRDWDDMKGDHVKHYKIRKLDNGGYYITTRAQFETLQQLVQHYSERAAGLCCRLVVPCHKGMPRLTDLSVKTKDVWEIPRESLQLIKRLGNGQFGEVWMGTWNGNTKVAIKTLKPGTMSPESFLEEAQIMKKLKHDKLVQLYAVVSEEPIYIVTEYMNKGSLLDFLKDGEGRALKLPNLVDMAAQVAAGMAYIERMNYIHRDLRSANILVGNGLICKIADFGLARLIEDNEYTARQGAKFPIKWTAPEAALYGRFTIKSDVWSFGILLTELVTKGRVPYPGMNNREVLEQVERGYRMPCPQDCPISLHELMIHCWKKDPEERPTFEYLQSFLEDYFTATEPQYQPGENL
Sequence of CDK8 (human) (P49336 whole entry, looked up): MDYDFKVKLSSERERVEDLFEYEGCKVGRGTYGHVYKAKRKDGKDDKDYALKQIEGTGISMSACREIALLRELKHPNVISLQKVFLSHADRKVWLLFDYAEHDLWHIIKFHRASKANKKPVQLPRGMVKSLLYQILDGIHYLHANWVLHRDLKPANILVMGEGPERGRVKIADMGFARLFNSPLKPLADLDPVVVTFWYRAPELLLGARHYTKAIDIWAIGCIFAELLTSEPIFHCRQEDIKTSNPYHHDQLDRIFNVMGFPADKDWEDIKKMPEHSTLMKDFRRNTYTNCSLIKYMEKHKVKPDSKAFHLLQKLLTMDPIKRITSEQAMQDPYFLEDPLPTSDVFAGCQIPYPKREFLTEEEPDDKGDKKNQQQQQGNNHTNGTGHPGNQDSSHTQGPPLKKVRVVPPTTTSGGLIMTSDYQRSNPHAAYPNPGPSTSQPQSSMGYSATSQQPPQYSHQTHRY

Row | SMILES | kinase still bound, per cent of control (ABL2 (human)) | kinase still bound, per cent of control (BMPR1A (human)) | kinase still bound, per cent of control (BMPR2 (human)) | kinase still bound, per cent of control (CAMK4 (human)) | kinase still bound, per cent of control (CAMKK1 (human)) | kinase still bound, per cent of control (CDC42BPB (human)) | kinase still bound, per cent of control (CDK11B (human)) | kinase still bound, per cent of control (CDK17 (human)) | kinase still bound, per cent of control (CDK18 (human)) | kinase still bound, per cent of control (CDK8 (human)) | kinase still bound, per cent of control (CDKL2 (human)) | kinase still bound, per cent of control (EIF2AK2 (human)) | kinase still bound, per cent of control (EPHB2 (human)) | kinase still bound, per cent of control (FYN (human)) | kinase still bound, per cent of control (MAP2K6 (human)) | kinase still bound, per cent of control (MAP3K3 (human)) | kinase still bound, per cent of control (MAPKAPK5 (human)) | kinase still bound, per cent of control (MARK1 (human)) | kinase still bound, per cent of control (MLTK (human)) | kinase still bound, per cent of control (MYLK (human)) | further results
1 | CCCS(=O)(=O)Nc1ccc(F)c(C(=O)c2c[nH]c3ncc(-c4ccc(Cl)cc4)cc23)c1F | 32% | 34% | 57% | 100% | 86% | 79% | 100% | 86% | 100% | 4.6% | 49% | 81% | 99% | 9.1% | 57% | 82% | 100% | 100% | 7.4% | 91% | kinase still bound, per cent of control [1]: 55%; kinase still bound, per cent of control (CSNK1D (human)): 97%; kinase still bound, per cent of control [2]: 52%; kinase still bound, per cent of control (MYO3B (human)): 64%; kinase still bound, per cent of control (NEK9 (human)): 98%; kinase still bound, per cent of control (PAK4 (human)): 86%; kinase still bound, per cent of control (PDGFRB (human)): 0.15%; kinase still bound, per cent of control (PIK3CD (human)): 89%; kinase still bound, per cent of control (PIM1 (human)): 95%; kinase still bound, per cent of control (PRKACA (human)): 100%; kinase still bound, per cent of control (PRKD2 (human)): 95%; kinase still bound, per cent of control (RET (human)): 43%; kinase still bound, per cent of control (RPS6KA1 KD1 (human)): 57%; kinase still bound, per cent of control (SRC (human)): 3.4%; kinase still bound, per cent of control (STK11 (human)): 75%; kinase still bound, per cent of control (STK33 (human)): 94%; kinase still bound, per cent of control (TEC (human)): 100%; kinase still bound, per cent of control [3]: 100%
2 | Cc1cc([C@@H](C)Nc2ccccc2C(=O)O)c2nc(N3CCOCC3)cc(=O)n2c1 | 95% | 97% | 85% | 100% | 98% | 100% | 100% | 100% | 100% | 79% | 91% | 99% | 100% | 100% | 92% | 87% | 100% | 100% | 100% | 70% | kinase still bound, per cent of control [1]: 94%; kinase still bound, per cent of control (CSNK1D (human)): 86%; kinase still bound, per cent of control (IRAK3 (human)): 58%; kinase still bound, per cent of control [2]: 81%; kinase still bound, per cent of control (MAP2K3 (human)): 100%; kinase still bound, per cent of control (MYO3B (human)): 93%; kinase still bound, per cent of control (NEK9 (human)): 100%; kinase still bound, per cent of control (PAK4 (human)): 100%; kinase still bound, per cent of control (PDGFRB (human)): 100%; kinase still bound, per cent of control (PIM1 (human)): 100%; kinase still bound, per cent of control (PRKACA (human)): 100%; kinase still bound, per cent of control (PRKD2 (human)): 100%; kinase still bound, per cent of control (RET (human)): 100%; kinase still bound, per cent of control (RPS6KA1 KD1 (human)): 73%; kinase still bound, per cent of control (SRC (human)): 100%; kinase still bound, per cent of control (STK11 (human)): 98%; kinase still bound, per cent of control (STK33 (human)): 100%; kinase still bound, per cent of control (TEC (human)): 91%; kinase still bound, per cent of control [3]: 100%
3 | O=C(O)c1ccc(Nc2ncc3c(n2)-c2ccc(Cl)cc2C(c2c(F)cccc2F)=NC3)cc1 | 30% | 36% | 26% | 66% | 89% | 69% | 89% | 100% | 100% | 100% | 86% | 100% | 50% | 17% | 72% | 72% | 100% | 100% | 93% | 95% | kinase still bound, per cent of control (IRAK3 (human)): 15%; kinase still bound, per cent of control (MYO3B (human)): 100%; kinase still bound, per cent of control (NEK9 (human)): 100%; kinase still bound, per cent of control (PAK4 (human)): 90%; kinase still bound, per cent of control (PDGFRB (human)): 34%; kinase still bound, per cent of control (PIK3CD (human)): 88%; kinase still bound, per cent of control (PIM1 (human)): 71%; kinase still bound, per cent of control (PRKACA (human)): 47%; kinase still bound, per cent of control (PRKD2 (human)): 92%; kinase still bound, per cent of control (RET (human)): 59%; kinase still bound, per cent of control (STK11 (human)): 92%; kinase still bound, per cent of control (STK33 (human)): 100%; kinase still bound, per cent of control (TEC (human)): 2%; kinase still bound, per cent of control [3]: 100%
